In PubChem BioAssay (NCI):
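Test compounds were applied to cells in 96-well plates for 48 hours at 5 doses. GI50 is the concentration that inhibits growth by half. Definition used: TGI = concentration required for complete inhibition of growth.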

How the values were obtained:
Test in all cases: inhibition of tumour cell growth, NCI panel, 48 h
ACHN renal = tested on: ACHN renal
BT-549 breast = tested on: BT-549 breast
CAKI-1 renal = tested on: CAKI-1 renal
DU-145 prostate = tested on: DU-145 prostate
HCC-2998 colon = tested on: HCC-2998 colon
HCT-15 colon = tested on: HCT-15 colon
KM12 colon = tested on: KM12 colon
MDA-MB-435 = tested on: MDA-MB-435
NCI/ADR-RES ovarian = tested on: NCI/ADR-RES ovarian
OVCAR-5 ovarian = tested on: OVCAR-5 ovarian
OVCAR-8 ovarian = tested on: OVCAR-8 ovarian
PC-3 prostate = tested on: PC-3 prostate
RPMI-8226 leukemia = tested on: RPMI-8226 leukemia
SF-295 CNS = tested on: SF-295 CNS
SF-539 CNS = tested on: SF-539 CNS
SK-MEL-28 melanoma = tested on: SK-MEL-28 melanoma
SN12C renal = tested on: SN12C renal
SNB-75 CNS = tested on: SNB-75 CNS
UO-31 renal = tested on: UO-31 renal
786-0 renal = tested on: 786-0 renal
A498 renal = tested on: A498 renal
A549 NSCLC = tested on: A549 NSCLC
CCRF-CEM leukemia = tested on: CCRF-CEM leukemia
COLO 205 colon = tested on: COLO 205 colon
EKVX NSCLC = tested on: EKVX NSCLC
HCT-116 colon = tested on: HCT-116 colon
HL-60(TB) leukemia = tested on: HL-60(TB) leukemia
HOP-62 NSCLC = tested on: HOP-62 NSCLC
HOP-92 NSCLC = tested on: HOP-92 NSCLC
HS 578T breast = tested on: HS 578T breast
HT29 colon = tested on: HT29 colon
IGROV1 ovarian = tested on: IGROV1 ovarian
K-562 leukemia = tested on: K-562 leukemia
LOX IMVI melanoma = tested on: LOX IMVI melanoma
M14 melanoma = tested on: M14 melanoma
MALME-3M melanoma = tested on: MALME-3M melanoma
MCF7 breast = tested on: MCF7 breast
MDA-MB-231 breast = tested on: MDA-MB-231 breast
MOLT-4 leukemia = tested on: MOLT-4 leukemia
NCI-H226 lung = tested on: NCI-H226 lung
NCI-H23 lung = tested on: NCI-H23 lung
NCI-H460 lung = tested on: NCI-H460 lung
NCI-H522 lung = tested on: NCI-H522 lung
OVCAR-3 ovarian = tested on: OVCAR-3 ovarian
OVCAR-4 ovarian = tested on: OVCAR-4 ovarian
RXF 393 renal = tested on: RXF 393 renal
SF-268 CNS = tested on: SF-268 CNS
SK-MEL-2 melanoma = tested on: SK-MEL-2 melanoma
SK-MEL-5 melanoma = tested on: SK-MEL-5 melanoma
SK-OV-3 ovarian = tested on: SK-OV-3 ovarian
SNB-19 CNS = tested on: SNB-19 CNS
SR leukemia = tested on: SR leukemia
SW-620 colon = tested on: SW-620 colon
T-47D breast = tested on: T-47D breast
TK-10 renal = tested on: TK-10 renal
U251 CNS = tested on: U251 CNS
UACC-257 melanoma = tested on: UACC-257 melanoma
UACC-62 melanoma = tested on: UACC-62 melanoma

CC(=O)O[C@H]1CC[C@]2(C)[C@H]3CC=C4[C@@H]5CC(C)(C)CC[C@]5(C(=O)NCCNCCN)CC[C@@]4(C)[C@]3(C)CC[C@H]2C1(C)C was tested. Which GI50 (ACHN renal) did it give?
The GI50 was 0.196 µM.

What about the TGI (ACHN renal) of the same compound?
Its TGI is 0.388 µM.

And the GI50 (BT-549 breast)?
Its GI50 is 1.68 µM.

What about the TGI (BT-549 breast) of the same compound?
Its TGI is 3.3 µM.

And the GI50 (CAKI-1 renal)?
The GI50 was 1.25 µM.

And the TGI (CAKI-1 renal)?
Its TGI is 2.59 µM.

What about the GI50 (DU-145 prostate) of the same compound?
Its GI50 is 1.29 µM.

What about the TGI (DU-145 prostate) of the same compound?
The TGI was 2.74 µM.

What about the GI50 (HCC-2998 colon) of the same compound?
The GI50 was 0.624 µM.

And the TGI (HCC-2998 colon)?
The TGI was 2.12 µM.

And the GI50 (HCT-15 colon)?
The GI50 was 0.282 µM.

And the TGI (HCT-15 colon)?
The TGI was 0.895 µM.

What about the GI50 (KM12 colon) of the same compound?
Its GI50 is 1.64 µM.

What about the TGI (KM12 colon) of the same compound?
Its TGI is 3.17 µM.

And the GI50 (MDA-MB-435)?
The GI50 was 1.34 µM.

What about the TGI (MDA-MB-435) of the same compound?
The TGI was 2.65 µM.

What about the GI50 (NCI/ADR-RES ovarian) of the same compound?
Its GI50 is 1.65 µM.

What about the TGI (NCI/ADR-RES ovarian) of the same compound?
The TGI was 3.65 µM.

And the GI50 (OVCAR-5 ovarian)?
The GI50 was 1.64 µM.

And the TGI (OVCAR-5 ovarian)?
The TGI was 3.09 µM.

And the GI50 (OVCAR-8 ovarian)?
The GI50 was 1.7 µM.

And the TGI (OVCAR-8 ovarian)?
The TGI was 4.27 µM.

And the GI50 (PC-3 prostate)?
Its GI50 is 1.1 µM.

What about the TGI (PC-3 prostate) of the same compound?
Its TGI is 2.43 µM.

And the GI50 (RPMI-8226 leukemia)?
The GI50 was 1.2 µM.

What about the TGI (RPMI-8226 leukemia) of the same compound?
The TGI was 3.52 µM.

What about the GI50 (SF-295 CNS) of the same compound?
Its GI50 is 1.77 µM.

And the TGI (SF-295 CNS)?
Its TGI is 3.25 µM.

What about the GI50 (SF-539 CNS) of the same compound?
Its GI50 is 1.51 µM.

What about the TGI (SF-539 CNS) of the same compound?
Its TGI is 2.94 µM.

What about the GI50 (SK-MEL-28 melanoma) of the same compound?
The GI50 was 1.71 µM.

And the TGI (SK-MEL-28 melanoma)?
Its TGI is 3.23 µM.

And the GI50 (SN12C renal)?
Its GI50 is 1.67 µM.

What about the TGI (SN12C renal) of the same compound?
Its TGI is 3.23 µM.

And the GI50 (SNB-75 CNS)?
Its GI50 is 1.36 µM.

And the TGI (SNB-75 CNS)?
Its TGI is 2.65 µM.

What about the GI50 (UO-31 renal) of the same compound?
The GI50 was 1.28 µM.

And the TGI (UO-31 renal)?
The TGI was 2.76 µM.

What does the source list for COc1cc(Cn2ccc3c2-c2oncc2CC3)cc(OC)c1?
GI50 (786-0 renal): 6.36 µM; TGI (786-0 renal): 37.1 µM; GI50 (A498 renal): 1.16 µM; TGI (A498 renal): 6.99 µM; GI50 (A549 NSCLC): 5.23 µM; TGI (A549 NSCLC): > 100 µM; GI50 (ACHN renal): 5.54 µM; TGI (ACHN renal): 97.9 µM; GI50 (CAKI-1 renal): 2.79 µM; TGI (CAKI-1 renal): 39.5 µM; GI50 (CCRF-CEM leukemia): 3.74 µM; TGI (CCRF-CEM leukemia): > 100 µM; GI50 (COLO 205 colon): 3.7 µM; TGI (COLO 205 colon): 17.3 µM; GI50 (DU-145 prostate): 3.99 µM; TGI (DU-145 prostate): > 100 µM; GI50 (EKVX NSCLC): 4.3 µM; TGI (EKVX NSCLC): 56.1 µM; GI50 (HCC-2998 colon): 7.13 µM; TGI (HCC-2998 colon): 90.1 µM; GI50 (HCT-116 colon): 3.49 µM; TGI (HCT-116 colon): 26.6 µM; GI50 (HCT-15 colon): 3.03 µM; TGI (HCT-15 colon): > 100 µM; GI50 (HL-60(TB) leukemia): 2.22 µM; TGI (HL-60(TB) leukemia): 8.94 µM; GI50 (HOP-62 NSCLC): 4.4 µM; TGI (HOP-62 NSCLC): > 100 µM; GI50 (HOP-92 NSCLC): 4.25 µM; TGI (HOP-92 NSCLC): 47 µM; GI50 (HS 578T breast): 2.38 µM; TGI (HS 578T breast): 12.2 µM; GI50 (HT29 colon): 3.17 µM; TGI (HT29 colon): > 100 µM; GI50 (IGROV1 ovarian): 7.44 µM; TGI (IGROV1 ovarian): > 100 µM; GI50 (K-562 leukemia): 0.594 µM; TGI (K-562 leukemia): > 100 µM; GI50 (KM12 colon): 2.02 µM; TGI (KM12 colon): 28.5 µM; GI50 (LOX IMVI melanoma): 4.83 µM; TGI (LOX IMVI melanoma): > 100 µM; GI50 (M14 melanoma): 2.39 µM; TGI (M14 melanoma): 9.45 µM; GI50 (MALME-3M melanoma): 4.25 µM; TGI (MALME-3M melanoma): 37.9 µM; GI50 (MCF7 breast): 2.2 µM; TGI (MCF7 breast): > 100 µM; GI50 (MDA-MB-231 breast): 6.58 µM; TGI (MDA-MB-231 breast): 81.4 µM; GI50 (MDA-MB-435): 0.369 µM; TGI (MDA-MB-435): 4.03 µM; GI50 (MOLT-4 leukemia): 4.09 µM; TGI (MOLT-4 leukemia): > 100 µM; GI50 (NCI-H226 lung): 15.5 µM; TGI (NCI-H226 lung): > 100 µM; GI50 (NCI-H23 lung): 3.89 µM; TGI (NCI-H23 lung): 52.9 µM; GI50 (NCI-H460 lung): 3.11 µM; TGI (NCI-H460 lung): 13.3 µM; GI50 (NCI-H522 lung): 3.57 µM; TGI (NCI-H522 lung): 40.4 µM; GI50 (NCI/ADR-RES ovarian): 1.95 µM; TGI (NCI/ADR-RES ovarian): 7.24 µM; GI50 (OVCAR-3 ovarian): 2.99 µM; TGI (OVCAR-3 ovarian): 9.79 µM; GI50 (OVCAR-4 ovarian): 16.4 µM; TGI (OVCAR-4 ovarian): > 100 µM; GI50 (OVCAR-5 ovarian): 10.1 µM; TGI (OVCAR-5 ovarian): > 100 µM; GI50 (OVCAR-8 ovarian): 4.81 µM; TGI (OVCAR-8 ovarian): 46.7 µM; GI50 (PC-3 prostate): 11 µM; TGI (PC-3 prostate): > 100 µM; GI50 (RPMI-8226 leukemia): 4.98 µM; TGI (RPMI-8226 leukemia): 50.3 µM; GI50 (RXF 393 renal): 5.2 µM; TGI (RXF 393 renal): 60 µM; GI50 (SF-268 CNS): 10.1 µM; TGI (SF-268 CNS): > 100 µM; GI50 (SF-295 CNS): 3.05 µM; TGI (SF-295 CNS): 28.8 µM; GI50 (SF-539 CNS): 2.8 µM; TGI (SF-539 CNS): 21.4 µM; GI50 (SK-MEL-2 melanoma): 8.29 µM; TGI (SK-MEL-2 melanoma): > 100 µM; GI50 (SK-MEL-28 melanoma): 8.75 µM; TGI (SK-MEL-28 melanoma): > 100 µM; GI50 (SK-MEL-5 melanoma): 2.75 µM; TGI (SK-MEL-5 melanoma): 10.4 µM; GI50 (SK-OV-3 ovarian): 4.79 µM; TGI (SK-OV-3 ovarian): > 100 µM; GI50 (SN12C renal): 6.99 µM; TGI (SN12C renal): > 100 µM; GI50 (SNB-19 CNS): 5.89 µM; TGI (SNB-19 CNS): > 100 µM; GI50 (SNB-75 CNS): 1.9 µM; TGI (SNB-75 CNS): 7.48 µM; GI50 (SR leukemia): 0.851 µM; TGI (SR leukemia): 31.1 µM; GI50 (SW-620 colon): 2.18 µM; TGI (SW-620 colon): > 100 µM; GI50 (T-47D breast): 3.69 µM; TGI (T-47D breast): 60.2 µM; GI50 (TK-10 renal): 8.04 µM; TGI (TK-10 renal): > 100 µM; GI50 (U251 CNS): 4.43 µM; TGI (U251 CNS): 69.3 µM; GI50 (UACC-257 melanoma): 6.72 µM; TGI (UACC-257 melanoma): 91.1 µM; GI50 (UACC-62 melanoma): 3.68 µM; TGI (UACC-62 melanoma): > 100 µM; GI50 (UO-31 renal): 6.09 µM; TGI (UO-31 renal): 41.6 µM
